Data taken from the NIST ThermoML archive (doi:10.1021/je060271a).
“And” between values parts separate entries of the source, which are not always exact repeats. Equal values may be shown once.

Conditions: Liquid, Vibrating tube method

CCCCCC(=O)OCC(COC(=O)CCCCC)(COC(=O)CCCCC)COC(=O)CCCCC [pentaerythritol tetrahexanoate]
Conditions | mass density
283.15 K, 30604 kPa | 1021 kg/m3
283.15 K, 30620 kPa | 1020.9 kg/m3
283.15 K, 30636 kPa | 1020.9 kg/m3
283.15 K, 30656 kPa | 1021.1 kg/m3
283.15 K, 30672 kPa | 1020.9 kg/m3
283.15 K, 30688 kPa | 1021 kg/m3
283.15 K, 30708 kPa | 1020.9 kg/m3
283.15 K, 30724 kPa | 1021 kg/m3
283.15 K, 30740 kPa | 1021 kg/m3
283.15 K, 30757 kPa | 1021 kg/m3
283.15 K, 30777 kPa | 1020.9 kg/m3
283.15 K, 30793 kPa | 1021.1 kg/m3
283.15 K, 30809 kPa | 1021 kg/m3
283.15 K, 30829 kPa | 1021 kg/m3
283.15 K, 30846 kPa | 1021.1 kg/m3
283.15 K, 30882 kPa | 1021 kg/m3
283.15 K, 30934 kPa | 1021.1 kg/m3
283.15 K, 30951 kPa | 1021.1 kg/m3
283.15 K, 30967 kPa | 1021.1 kg/m3
283.15 K, 30987 kPa | 1021 kg/m3
283.15 K, 31003 kPa | 1021.3 kg/m3
283.15 K, 31020 kPa | 1021.2 kg/m3
283.15 K, 31040 kPa | 1021.1 kg/m3
283.15 K, 31056 kPa | 1021.2 kg/m3
283.15 K, 31073 kPa | 1021.1 kg/m3
283.15 K, 31093 kPa | 1021.1 kg/m3
283.15 K, 31110 kPa | 1021.1 kg/m3
283.15 K, 31127 kPa | 1021.2 kg/m3
283.15 K, 31147 kPa | 1021.2 kg/m3
283.15 K, 31164 kPa | 1021.2 kg/m3
283.15 K, 31180 kPa | 1021.2 kg/m3
283.15 K, 31201 kPa | 1021.3 kg/m3
283.15 K, 31217 kPa | 1021.3 kg/m3
283.15 K, 31234 kPa | 1021.3 kg/m3
283.15 K, 31254 kPa | 1021.3 kg/m3
283.15 K, 31272 kPa | 1021.2 kg/m3
283.15 K, 31289 kPa | 1021.2 kg/m3
283.15 K, 31306 kPa | 1021.2 kg/m3
283.15 K, 31327 kPa | 1021.3 kg/m3
283.15 K, 31343 kPa | 1021.3 kg/m3
283.15 K, 31361 kPa | 1021.3 kg/m3
283.15 K, 31378 kPa | 1021.3 kg/m3
283.15 K, 31398 kPa | 1021.4 kg/m3
283.15 K, 31415 kPa | 1021.3 kg/m3
283.15 K, 31432 kPa | 1021.4 kg/m3
283.15 K, 31453 kPa | 1021.5 kg/m3
283.15 K, 31470 kPa | 1021.4 kg/m3
283.15 K, 31488 kPa | 1021.5 kg/m3
283.15 K, 31509 kPa | 1021.5 kg/m3
283.15 K, 31528 kPa | 1021.5 kg/m3
283.15 K, 31545 kPa | 1021.6 kg/m3
283.15 K, 31562 kPa | 1021.5 kg/m3
283.15 K, 31583 kPa | 1021.3 kg/m3
283.15 K, 31600 kPa | 1021.4 kg/m3
283.15 K, 31618 kPa | 1021.5 kg/m3
283.15 K, 31639 kPa | 1021.5 kg/m3
283.15 K, 31656 kPa | 1021.5 kg/m3
283.15 K, 31674 kPa | 1021.5 kg/m3
283.15 K, 31691 kPa | 1021.5 kg/m3
283.15 K, 31712 kPa | 1021.6 kg/m3
283.15 K, 31730 kPa | 1021.4 kg/m3
283.15 K, 31748 kPa | 1021.6 kg/m3
283.15 K, 31770 kPa | 1021.4 kg/m3
283.15 K, 31787 kPa | 1021.5 kg/m3
283.15 K, 31805 kPa | 1021.5 kg/m3
283.15 K, 31823 kPa | 1021.6 kg/m3
283.15 K, 31845 kPa | 1021.5 kg/m3
283.15 K, 31863 kPa | 1021.6 kg/m3
283.15 K, 31881 kPa | 1021.5 kg/m3
283.15 K, 31902 kPa | 1021.5 kg/m3
283.15 K, 31920 kPa | 1021.4 kg/m3
283.15 K, 31942 kPa | 1021.6 kg/m3
283.15 K, 31960 kPa | 1021.6 kg/m3
283.15 K, 31978 kPa | 1021.7 kg/m3
283.15 K, 31996 kPa | 1021.6 kg/m3
283.15 K, 32019 kPa | 1021.5 kg/m3
283.15 K, 32037 kPa | 1021.7 kg/m3
283.15 K, 32055 kPa | 1021.8 kg/m3
283.15 K, 32077 kPa | 1021.7 kg/m3
283.15 K, 32096 kPa | 1021.6 kg/m3
283.15 K, 32115 kPa | 1021.8 kg/m3
283.15 K, 32133 kPa | 1021.7 kg/m3
283.15 K, 32156 kPa | 1021.6 kg/m3
283.15 K, 32349 kPa | 1021.8 kg/m3
283.15 K, 32369 kPa | 1021.8 kg/m3
283.15 K, 32386 kPa | 1021.7 kg/m3
283.15 K, 32399 kPa | 1021.8 kg/m3
283.15 K, 32420 kPa | 1021.7 kg/m3
283.15 K, 32436 kPa | 1021.9 kg/m3
283.15 K, 32455 kPa | 1022 kg/m3
283.15 K, 32472 kPa | 1022 kg/m3
283.15 K, 32488 kPa | 1021.9 kg/m3
283.15 K, 32506 kPa | 1021.9 kg/m3
283.15 K, 32526 kPa | 1021.9 kg/m3
283.15 K, 32543 kPa | 1022 kg/m3
283.15 K, 32560 kPa | 1021.9 kg/m3
283.15 K, 32575 kPa | 1022 kg/m3
283.15 K, 32587 kPa | 1021.9 kg/m3
283.15 K, 32601 kPa | 1022 kg/m3
283.15 K, 32613 kPa | 1021.9 kg/m3
283.15 K, 32626 kPa | 1021.9 kg/m3
283.15 K, 32639 kPa | 1022 kg/m3
283.15 K, 32654 kPa | 1022 kg/m3
283.15 K, 32665 kPa | 1022 kg/m3
283.15 K, 32672 kPa | 1022 kg/m3
283.15 K, 32680 kPa | 1022 kg/m3
283.15 K, 32688 kPa | 1022.1 kg/m3
283.15 K, 32694 kPa | 1022 kg/m3
283.15 K, 32703 kPa | 1022 kg/m3
283.15 K, 32708 kPa | 1022.1 kg/m3
283.15 K, 32709 kPa | 1022 kg/m3
283.15 K, 32711 kPa | 1021.8 kg/m3
283.15 K, 32715 kPa | 1022 kg/m3
283.15 K, 32718 kPa | 1022 kg/m3
283.15 K, 32720 kPa | 1022 kg/m3 and 1022.1 kg/m3
283.15 K, 32723 kPa | 1021.9 kg/m3 and 1022 kg/m3
283.15 K, 32725 kPa | 1021.9 kg/m3
283.15 K, 32726 kPa | 1022 kg/m3
283.15 K, 32853 kPa | 1022 kg/m3
283.15 K, 32977 kPa | 1022.2 kg/m3
283.15 K, 32981 kPa | 1022.1 kg/m3
283.15 K, 32985 kPa | 1022.1 kg/m3
283.15 K, 32990 kPa | 1022.1 kg/m3
283.15 K, 32992 kPa | 1022.2 kg/m3
283.15 K, 32997 kPa | 1022.1 kg/m3
283.15 K, 33001 kPa | 1022.1 kg/m3
283.15 K, 33005 kPa | 1022.2 kg/m3
283.16 K, 90.5 kPa | 1004.1 kg/m3
283.16 K, 90.7 kPa | 1004.2 kg/m3
283.16 K, 90.8 kPa | 1004.2 kg/m3
283.16 K, 90.9 kPa | 1004.1 kg/m3 and 1004.3 kg/m3
283.16 K, 91.2 kPa | 1004.3 kg/m3 and 1004.2 kg/m3
283.16 K, 91.4 kPa | 1004.1 kg/m3 and 1004.2 kg/m3 and 1004 kg/m3
283.16 K, 91.5 kPa | 1004.1 kg/m3 and 1004.2 kg/m3
283.16 K, 91.7 kPa | 1004.2 kg/m3 and 1004.1 kg/m3
283.16 K, 91.9 kPa | 1004.2 kg/m3
283.16 K, 92.1 kPa | 1004.3 kg/m3
283.16 K, 92.2 kPa | 1004.2 kg/m3 and 1004.1 kg/m3
283.16 K, 92.4 kPa | 1004.2 kg/m3
283.16 K, 92.6 kPa | 1004.2 kg/m3
283.16 K, 92.8 kPa | 1004.1 kg/m3 and 1004.2 kg/m3 and 1004 kg/m3
283.16 K, 93.1 kPa | 1004.2 kg/m3 and 1004.1 kg/m3
283.16 K, 93.3 kPa | 1004.1 kg/m3 and 1004.2 kg/m3
283.16 K, 93.6 kPa | 1004.2 kg/m3
283.16 K, 93.8 kPa | 1004.1 kg/m3 and 1004.2 kg/m3
